Source: publication PMC8210616, “Adjuvant-free peptide vaccine targeting Clec9a on dendritic cells can induce robust antitumor immune response through Syk/IL-21 axis” (Theranostics, 2021)
“Also recorded” adds a separate entry of the source. Ends that are not written are not given here. Peptide text beside a SMILES is read from it. * marks the point of attachment. biotin = biotin on the C-terminal Lys, O=C1N[C@H]2[C@H](CS[C@H]2CCCCC(=O)*)N1; Biotin = O=C1N[C@H]2[C@H](CS[C@H]2CCCCC(=O)*)N1

Experiments:
[1] = test system: IL-21 in cDC1s (CD11c^+XCR1^+); experiment: Intracellular cytokine staining for IL-21 in FL-DCs; format: cell-based, mouse
Protocol: FL-DCs were incubated with 100 μg/mL OVA257-264, GA-OVA, CBP-12-OVA or PBS and protein transport inhibitor cocktail at 37 °C for 6 h. For Syk phosphorylation inhibition assay, FL-DCs were incubated with 2.5 μM R406 (MCE, New Jersey, USA) for 1 h and then cultured with 100 μg/mL CBP-12-OVA and protein transport inhibitor cocktail at 37 °C for 6 h. IL-21 positive frequency was detected by ICS. R406 is an ATP-competitive Syk kinase inhibitor [26]. Cells stained with anti-mouse-CD11c-APC (N418), anti-mouse/rat XCR1-Brilliant Violet 650™ (ZET) and anti-mouse-IL-21-PE (FFA21) or Rat IgG2a-PE kappa Isotype Control (eBR2a) for IL-21 production were analyzed by a flow cytometry.

spleen cDC1s = experiment: Phagocytosis / targeting of cDC1s in vivo; set-up: species or system mouse; conditions: 100 μg biotinylated peptide s.c., sacrificed after 15 min, n = 3 per group
Text: Based on our previous study, Asp248 and Trp250 were two key residues for Clec9a to bind with WH peptide. In order to improve the binding of WH peptide to Clec9a, a silico residue scanning approach was applied to design high affinity WH mutants. The mutants were predicted by using the module of Residue Scanning mutates function, MOE (Molecular Operating Environments) software (2018 version, Chemical Computing Group Inc, Montreal, Quebec, Canada). Two hundred and twenty peptides were obtained, among which 15 peptides were selected and synthesized for experimental identification.
For phagocytosis in vivo, 6-week-old C57BL/6 mice were s.c. vaccinated with 100 μg biotinylated peptide. After 15 min of immunization, mice were sacrificed. Splenocytes were stained with anti-mouse CD45-FITC (30-F11), anti-mouse CD11c-PerCP-efluor […]
were fixed, permeabilized and further stained with SA-PE for CBP-12 targeting […]
For phagocytosis in vitro, FL-DCs were incubated with biotinylated GA peptide and CBP-12 for 30 min on ice, then cells were washed three times and culture for 2 h at 37 °C. FL-DCs were stained with anti-mouse CD45-FITC (30-F11), anti-mouse CD11c-PerCP-efluor 450 (N418), anti-mouse XCR1-BV650 (ZET) and CD11b-APC (M1/70) to mark cDC1s and cDC2s. Then FL-DCs were fixed, permeabilized and […]

FL-DCs = experiment: Uptake of peptide^biotin-SA-PE by FL-DCs, confocal microscopy; format: cell-based, mouse; conditions: for effect of endocytosis inhibitor on uptake of CBP-12 by FL-DCs: pre-incubation 1 h with inhibitor, then 50 μM CBP-12^biotin-SA-PE 2 h at 37 °C
Protocol: Biotinylated peptide was mixed with SA-PE in a molar ratio of 1: 3 to obtain SA-PE labeled peptide (peptide^biotin-SA-PE). FL-DCs from wild type (WT) or Clec9a^-/- mice was harvested and washed twice with PBS before use. […] After washing, cells were incubated with Hoechst 33342 (Beyotime Biotechnology, Beijing, China) for 1 h to stain the nucleus. Cells were analyzed with a confocal laser scanning microscopy (Leica TCS SP8, Wetzlar, Germany).

human Clec9a = human Clec9a (Homo sapiens, UniProt Q6UXN8); experiment: Binding to human Clec9a (data not shown)
Chain of human Clec9a (Q6UXN8 whole entry): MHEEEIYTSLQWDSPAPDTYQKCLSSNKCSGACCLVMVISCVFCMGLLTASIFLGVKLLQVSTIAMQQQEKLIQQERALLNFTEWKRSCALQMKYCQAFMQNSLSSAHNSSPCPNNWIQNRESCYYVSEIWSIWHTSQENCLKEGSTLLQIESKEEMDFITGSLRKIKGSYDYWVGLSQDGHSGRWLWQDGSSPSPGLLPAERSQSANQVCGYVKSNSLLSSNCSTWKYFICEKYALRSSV

HEK-293T^mock cells = experiment: Peptide binding assay by flow cytometry, mock-transfected HEK-293T cells; conditions: biotinylated peptides 100 µM, 30 min on ice, SA-PE
Protocol: (§1) HEK-293T cells were transiently transfected with pIRES2-EGFP-mClec9a plasmid, or the mock pIRES2-EGFP plasmid for binding assay. Cells (3 × 10^5) were incubated with rat serum to block Fc receptors and different biotinylated peptides for 30 min on ice. After washing three times, cells were stained with streptavidin (SA)-PE for 30 min on ice, and the samples were analyzed for binding affinity by a flow cytometry after washing once.

[2] = target: T1, mouse Clec9a (mClec9a) protein (Mus musculus, UniProt Q8BRU4); experiment: Binding affinity measurement by MST; conditions: ratio of MST KD values
T1 sequence (Q8BRU4 106-238 limits assumed): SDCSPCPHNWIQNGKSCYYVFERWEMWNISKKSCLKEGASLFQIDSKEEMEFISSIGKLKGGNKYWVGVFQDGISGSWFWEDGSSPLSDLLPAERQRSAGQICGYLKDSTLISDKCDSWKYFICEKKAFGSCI
Protocol: The affinity of the peptide to mouse Clec9a (mClec9a) protein was detected by microscale thermophoresis (MST) (NanoTemper Technologies GmhH, Germany). Briefly, mClec9a protein (Sino Biological, Beijing, China) was labeled with Red-NHS647 dye (NanoTemper Technologies GmhH, Germany), and the successfully labeled protein was used for affinity measurements. Peptides were diluted into serial concentrations with MST buffer. Equal volume of dye-labeled mClec9a protein was incubated with peptides at room temperature, the mixture was loaded onto capillaries (NanoTemper Technologies GmhH, Germany) and immediately analyzed by an MST instrument. The data were estimated by MO. Affinity Analysis v2.2.4.

[3] = test system: spleen cDC1s (CD45^+CD11c^+XCR1^+); experiment: Uptake of biotinylated peptide by spleen cDC1s in vitro; format: cell-based; conditions: mouse splenocytes, 6.25 µM biotinylated peptide 30 min on ice, then 2 h at 37 °C, SA-PE flow cytometry
Protocol: Mouse splenocytes (5 × 10^5) were incubated with biotinylated GA peptide and CBP-12 for 30 min on ice, and then cells were washed three times and cultured for 2 h at 37 °C. Spleen cells were stained with anti-mouse CD45-FITC (30-F11), anti-mouse CD11c-PerCP-efluor 450 (N418), anti-mouse XCR1-BV650 (ZET) and anti-mouse CD11b-APC (M1/70). Then cells were fixed, permeabilized and further stained with SA-PE for peptide uptake analysis.

[4] = In vitro enzyme degradation of peptide in mouse serum; format: in vitro ADME; conditions: 10% (V/V) mouse serum saline solution, peptide 1 mM, 37 °C, sampled 0, 0.25, 0.5, 1 and 2 h, residual peptide by RP-HPLC
Protocol: further stained with SA-PE. CBP-12 uptake by cDC1s and cDC2s were tested with […]
In vitro enzyme degradation of peptide
Peripheral blood of mice was stand at room temperature for 1 h, centrifuged for 10 min and then the supernatant was acquired. The peptide (1 mM) was added into 10% (V/V) serum saline solution and incubated for 2 h at 37 ℃. The samples taken at different time points were added 90% (V/V) acetonitrile-glacial acetic acid mixture and centrifuged for 15 min, then the supernatants were collected. The content of the residual peptide in samples was analyzed at 0 h, 0.25 h, 0.5 h, 1 h and 2 h by […]
CBP-12-OVA targeting to Clec9a together with adjuvant treated tumor model C57BL/6 or Clec9a−/− mice were s.c. injected with 2 × 10^5 B16-OVA cells. Three days after the tumor implantation, the mice were treated weekly for total of three times, with either 100 μg peptide or normal saline and 30 μg CpG ODN 1826 as adjuvant.
Then the mice were sacrificed after five days of the last injection.
Animal immunization and ex vitro CTL priming without adjuvant
For animal immunization and ex vivo CTL priming, female C57BL/6 mice of 6 -8 weeks were immunized with 20 μg OVA257–264, GA-OVA, CBP-12-OVA, or normal saline s.c. injected once a week for total of three times. Five days after the last

mClec9a = target: T2, mClec9a (Mus musculus, UniProt Q8BRU4); experiment: Peptide binding assay by flow cytometry, mClec9a-transfected HEK-293T cells; conditions: biotinylated peptides 100 µM, 30 min on ice, SA-PE
T2 construct: expressed in transfected cells; host or cells: HEK-293T
T2 sequence (Q8BRU4 1-264 isoform Q8BRU4-4): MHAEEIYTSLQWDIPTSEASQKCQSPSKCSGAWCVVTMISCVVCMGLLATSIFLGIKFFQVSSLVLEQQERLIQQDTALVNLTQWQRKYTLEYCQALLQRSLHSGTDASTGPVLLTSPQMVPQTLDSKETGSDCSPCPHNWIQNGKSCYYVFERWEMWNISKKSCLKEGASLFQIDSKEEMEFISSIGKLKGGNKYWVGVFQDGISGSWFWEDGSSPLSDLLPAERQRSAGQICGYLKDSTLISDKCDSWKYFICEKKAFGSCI
Protocol: as §1

[5] = target: mouse Clec9a (mClec9a) protein (mouse) (UniProt Q8BRU4); experiment: MST; mClec9a protein labeled with Red-NHS647 dye; peptides in serial dilution in MST buffer, room temperature; MO. Affinity Analysis v2.2.4
[6] = 50 µM peptide^biotin-SA-PE, 2 h, 37 °C, confocal

In the case of `COc1cc(Nc2ncc(F)c(Nc3ccc4c(n3)NC(=O)C(C)(C)O4)n2)cc(OC)c1OC` [R406, reference compound], the “effect on CBP-12-OVA induced IL-21 secretion from cDC1s” value ([1]; 2.5 µM R406 for 1 h, then 100 µg/mL CBP-12-OVA 6 h) is reported as “suppress the secretion of IL-21”.

For `CC(C)[C@H](NC(=O)[C@H](CO)NC(=O)[C@H](CO)NC(=O)[C@H](Cc1c[nH]cn1)NC(=O)[C@H](Cc1ccccc1)NC(=O)[C@H](CCCNC(=N)N)NC(=O)[C@@H]1CCCN1C(=O)[C@@H](N)Cc1c[nH]c2ccccc12)C(=O)N[C@@H](CCCNC(=N)N)C(=O)N[C@@H](Cc1c[nH]cn1)C(=O)N[C@H](C(=O)N[C@@H](Cc1c[nH]cn1)C(=O)NCC(=O)NCC(=O)NCC(=O)N[C@@H](CCCCNC(=O)CCCC[C@@H]1SC[C@@H]2NC(=O)N[C@@H]21)C(=O)O)[C@@H](C)O` [CBP-12] (H-WPRFHSSVRHTHGGGK(Biotin)-OH; N-terminus and C-terminus assumed), the “targeting of cDC1s versus cDC2s in vivo” value (spleen cDC1s) was “could target to cDC1s but not cDC2s”, the “fluorescence signal in FL-DCs derived from Clec9a^-/- mice” value (FL-DCs; [6]) was “much lower” and the “fluorescence signal in FL-DCs of WT mice” value (FL-DCs; [6]) was “strong fluorescence signal”. For the same molecule, the “binding to human Clec9a” value (human Clec9a) was “could bind”, the “binding to mock plasmid transfected HEK-293T cells” value (HEK-293T^mock cells) was “did not bind” and the “affinity for mClec9a relative to WH peptide” value [2] was 37.2 fold. For the same molecule, the “uptake by spleen cDC1s in vitro” value [3] was “strong uptake”, the “secretion of IL-21 from cDC1s, ICS” value ([1]; FL-DCs, 100 µg/mL peptide, 6 h, 37 °C) was “stimulated the secretion of IL-21 from cDC1s” and the “stability in mouse serum” value [4] was “resists protease hydrolysis; also recorded: stable in mouse serum for 1 h”. For the same molecule, the “binding to mClec9a-overexpressing HEK-293T cells” value (mClec9a) was “higher binding affinity than the other peptides”.

With `N=C(N)NC(=O)c1nc(Cl)c(N)nc1N` [amiloride, reference compound] the “effect of endocytosis inhibitor on uptake of CBP-12 by FL-DCs” value (FL-DCs) was “inhibited”.

For `CN(C)CCCN1c2ccccc2Sc2ccc(Cl)cc21` [chlorpromazine, reference compound], the “effect of endocytosis inhibitor on uptake of CBP-12 by FL-DCs” value (FL-DCs) was “inhibited”.

WPRFHSSVRHTHGGGK(biotin) [CBP-12^biotin (12-mer Clec9a binding peptide, …-GGG-K^biotin)] showed a Kd [5] of 0.61 µM.

In the case of WPRFHSSVFHTHGGGK(biotin) [WH^biotin (WH peptide, …-GGG-K^biotin)], the Kd [5] is reported as 22.7 µM.
